PMC3377626, “Role of mprF1 and mprF2 in the Pathogenicity of Enterococcus faecalis” (PLoS ONE, 2012)
In brackets after ≈: the same amount, converted by molar mass. No end group written: not given here.

What was measured:
E. faecalis 12030 [1] = experiment: MIC by serial dilution (modified NCCLS method); format: cell-based, Enterococcus faecalis; conditions: wild type strain; serial dilution in TSB broth, 96-well plates, approx. 1×10^6 CFU/ml, overnight at 37°C; lowest concentration at which visible growth was inhibited
Protocol: (§1) The minimal inhibitory concentration (MIC) of polymyxin B, nisin, HBD-3, and colistin was determined in serial dilution with a modified NCCLS method. Experiments were performed in TSB broth in 96-well microtiter tissue culture plates (Greiner). Wells were inoculated with 50-µl volumes of a suspension containing approximately 1×10^6 CFU/ml of the test organism, and concentrations were confirmed by enumeration of CFUs after serial dilution. Microtiter plates were incubated overnight at 37°C, and the MICs were defined as the lowest concentration at which visible growth was inhibited. The MIC against daptomycin was determined by E-test according to standard laboratory procedures.

E. faecalis 12030 ΔmprF2 = experiment: MIC by serial dilution (modified NCCLS method); format: cell-based, Enterococcus faecalis; conditions: for Minimal inhibotory concentration: mprF2 (EF_1027) deletion mutant, serial dilution in TSB broth, 96-well plates, approx. 1×10^6 CFU/ml, overnight at 37°C, lowest concentration at which visible growth was inhibited; for fold decreased MIC of 12030ΔmprF2 compared to the wild-type strain: ratio of MIC of wild type E. faecalis 12030 to MIC of 12030ΔmprF2, from Table 1
Protocol: as §1

S. aureus = S. aureus MprF mutant versus wild type; cited from earlier work
Source text: In contrast to S. aureus, however, there was no effect on ...

[2] = system: E. faecalis 12030 ΔmprF2 CM; experiment: MIC by serial dilution (modified NCCLS method); format: cell-based, Enterococcus faecalis; conditions: mprF2 mutant complemented by knock-in of mprF2; serial dilution in TSB broth, 96-well plates, approx. 1×10^6 CFU/ml, overnight at 37°C; lowest concentration at which visible growth was inhibited
Protocol: as §1

E. faecalis 12030 ΔmprF1 = experiment: MIC by serial dilution (modified NCCLS method); format: cell-based, Enterococcus faecalis; conditions: mprF1 (EF_0031) deletion mutant; serial dilution in TSB broth, 96-well plates, approx. 1×10^6 CFU/ml, overnight at 37°C; lowest concentration at which visible growth was inhibited
Protocol: as §1

E. faecalis 12030 [3] = experiment: MIC by E-test; format: cell-based, Enterococcus faecalis; conditions: wild-type strain
Protocol: as §1

[4] = system: 12030ΔmprF2 CM (knock-in); experiment: MIC by E-test; format: cell-based, Enterococcus faecalis; conditions: mprF2 mutant complemented by knock-in
Protocol: as §1

12030ΔmprF2 = experiment: MIC by E-test; format: cell-based, Enterococcus faecalis; conditions: mprF2 deletion mutant
Protocol: as §1

12030ΔmprF1 = experiment: MIC by E-test; format: cell-based, Enterococcus faecalis; conditions: mprF1 deletion mutant
Protocol: as §1

Row | Compound | Minimal inhibotory concentration (E. faecalis 12030 [1]) [µg/mL] | Minimal inhibotory concentration (E. faecalis 12030 ΔmprF2) [µg/mL] | fold decreased MIC of 12030ΔmprF2 compared to the wild-type strain (E. faecalis 12030 ΔmprF2) [fold] | fold drop of the MIC on mutation of MprF in S. aureus (S. aureus) [fold] | Minimal inhibotory concentration [2] [µg/mL] | Minimal inhibotory concentration (E. faecalis 12030 ΔmprF1) [µg/mL] | MIC (E. faecalis 12030 [3]) [µg/mL] | MIC [4] [µg/mL] | MIC (12030ΔmprF2) [µg/mL] | MIC (12030ΔmprF1) [µg/mL]
1 | colistin | 4096 | 2048 | 2 |  |  |  |  |  |  | 
2 | nisin (ITSISLCTPGCKTGALMGCNMKTATCHCSIHVSK; cysteine pairing not given here; also: lantibiotic nisin-A, lanthionine/dehydro residues not placed; UniProt P13068 24-57, looked up) [cationic antimicrobial peptide (CAMP)] | 4 | 1 | 4 | 28 | 4 | 4 |  |  |  | 
3 | polymyxin B | 1024 | 256 | 4 |  |  |  |  |  |  | 
4 | CCCCCCCCCC(=O)N[C@@H](Cc1c[nH]c2ccccc12)C(=O)N[C@H](CC(N)=O)C(=O)N[C@@H](CC(=O)O)C(=O)N[C@@H]1C(=O)NCC(=O)N[C@@H](CCCN)C(=O)N[C@@H](CC(=O)O)C(=O)N[C@H](C)C(=O)N[C@@H](CC(=O)O)C(=O)NCC(=O)N[C@H](CO)C(=O)N[C@@H]([C@H](C)CC(=O)O)C(=O)N[C@@H](CC(=O)c2ccccc2N)C(=O)O[C@@H]1C [daptomycin] |  |  |  |  |  |  | 0.19 (≈ 0.117 µM) | 0.25 (≈ 0.154 µM) | 0.25 (≈ 0.154 µM) | 0.25 (≈ 0.154 µM)
5 | HBD-3: cationic antimicrobial peptide (CAMP) (GIINTLQKYYCRVRGGRCAVLSCLPKEEQIGKCSTRGRKCCRRKK; ends and bridges not checked; cysteine pairing not given here; UniProt P81534 23-67, looked up) | >512 | 128 | > 4 |  |  |  |  |  |  | 
